Test results from publication PMC7160673, “A Degenerate Peptide Library Approach to Reveal Sequence Determinants of Methyllysine-Driven Protein Interactions” (Frontiers in Cell and Developmental Biology, 2020).

Key:
Format in all cases: binding
[1] = test system: Abcam #ab8895, anti-H3K4me1; assay: Histone peptide microarray, Abcam ab8895; details: Abcam ab8895 (anti-H3K4me1) hits, average signal per peptide
[2] = test system: Active Motif #39161, anti-H3K9me3; assay: Histone peptide microarray, Active Motif 39161; details: Active Motif 39161 (anti-H3K9me3) hits
53BP1 TTD = assay: Histone peptide microarray, 53BP1 TTD; details: 53BP1 TTD hits, average signal per peptide
How it was run: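 Steps: print histone peptide microarray; incubate with protein or antibody in 25 mM HEPES pH 7.5, 100 mM NaCl, 0.5% BSA, 0.1% NP-40; wash three times for 5 min (PBS, 0.1% Tween-20); apply anti-GST at 1:2,000; wash; apply AlexaFluor 647-labeled secondary at 1:5,000; scan fluorescence.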

[3] = test system: Millipore #07-449, anti-H3K27me3; assay: Histone peptide microarray, Millipore 07-449; details: Millipore 07-449 (anti-H3K27me3) hits, average signal per peptide
[4] = test system: ABClonal #A2355, anti-H3K4me1; assay: Histone peptide microarray, ABclonal A2355; details: Abclonal A2355 (anti-H3K4me1) hits
Experimental: Peptide microarrays were fabricated using an Aushon 2470 microarrayer and used as described ([Cornett et al., 2017]) with the following modifications. Protein and antibody hybridization steps were performed in buffer containing 25 mM HEPES pH 7.5, 100 mM NaCl, 0.5% BSA (w/v), and 0.1% NP-40. Slides were washed 3 × 5 min in PBS supplemented with 0.1% Tween-20 between each hybridization step. Antibodies used were primary anti-GST (Sigma #7781, 1:2,000 dilution) and an AlexaFluor 647-labeled secondary antibody (Life Technologies A-21245, 1:5,000 dilution). […] Full lists of peptides queried by array analysis are in Supplementary Table S2.

CST 9733 (anti-H3K27me3) = assay: Histone peptide microarray, CST 9733; details: histone peptide array signal normalized to the highest peptide average per subarray, hits; CST 9733 LOT:14 dilution 1:5,000

Substance | Avg Signal [1] | Avg Signal [2] | Avg Signal (53BP1 TTD) | Avg Signal [3] | Avg Signal [4] | Avg Signal (CST 9733 (anti-H3K27me3))
ACitTK(Me2)QTARKSTGGKAPRKQL-K(Biot)-NH2 [H3.1Cit2K4me2] | 0.2048 | 2.176e-5 | 0.6324 | 0.002853 | 0.3053 | 0.0001108
ACitTK(Me3)QTARK(Ac)STGGK(Ac)APRK(Ac)QL-K(Biot)-NH2 [H3.1Cit2K4me3K9acK14acK18ac] |  | 0.03654 | 0.1358 | 0.0318 | 0.0002223 | 0.00661
AR(Me2a)TK(Me2)QTARKSTGGKAPRKQL-K(Biot)-NH2 [H3.1R2me2aK4me2] | 0.2655 | 0.0008405 | 0.2614 | 0.008316 | 0.325 | 
AR(Me2a)TK(Me3)QTARK(Ac)STGGK(Ac)APRK(Ac)QL-K(Biot)-NH2 [H3.1R2me2aK4me3K9acK14acK18ac] | 0.04451 | 0.01091 | 0.02297 | 0.02578 | 0.01872 | 0.007631
AR(Me2a)TKQTARKSTGGKAPRKQL-K(Biot)-NH2 [Peptide H3.1R2me2a] | 0.1119 | 0.00368 | 0.05357 | 0.004979 | 0.0139 | 
AR(Me2a)pTK(Me3)QTARKSTGGKAPRKQL-K(Biot)-NH2 [H3.1R2me2aT3pK4me3] | 0.001405 |  | 0.03111 | 0.007597 | 0.002084 | 
AR(Me2s)TK(Me2)QTARKSTGGKAPRKQL-K(Biot)-NH2 [H3.1R2me2sK4me2] | 0.2778 |  | 0.2755 |  | 0.3527 | 0.003211
AR(Me)TK(Me2)QTARKSTGGKAPRKQL-K(Biot)-NH2 [H3.1R2me1K4me2] | 0.2976 | 0.0007938 | 0.4867 |  | 0.4048 | 0.0008431
ARTK(Ac)QTARKSTGGK(Ac)APRK(Ac)QL-K(Biot)-NH2 [H3.1K4acK14acK18ac] | 0.001503 |  | 0.1071 | 0.004978 | 0.005007 | 
ARTK(Ac)QTARKSTGGKAPRK(Ac)QL-K(Biot)-NH2 [H3.1K4acK18ac] | 0.002862 | 0.0001961 | 0.07704 |  | 0.001249 | 
ARTK(Me2)QTARK(Ac)STGGK(Ac)APRK(Ac)QL-K(Biot)-NH2 [H3.1K4me2K9acK14acK18ac] | 0.4999 |  | 0.5398 | 0.02042 | 0.4093 | 
ARTK(Me2)QTARK(Ac)STGGKAPRK(Ac)QL-K(Biot)-NH2 [H3.1K4me2K9acK18ac] | 0.4062 | 0.009454 | 0.5101 |  | 0.4042 | 
ARTK(Me2)QTARKSTGGKAPRKQL-K(Biot)-NH2 [Peptide H3.1K4me2] | 0.3093 | 0.001961 | 0.3009 |  | 0.3078 | 
ARTK(Me2)QpTARK(Ac)STGGK(Ac)APRK(Ac)QL-K(Biot)-NH2 [H3.1K4me2T6pK9acK14acK18ac] | 0.2093 |  | 0.3467 |  | 0.3869 | 0.0006457
ARTK(Me2)QpTARKSTGGKAPRKQL-K(Biot)-NH2 [Peptide H3.1K4me2T6p] | 0.1917 | 0.000965 | 0.2267 |  | 0.3499 | 0.0001379
ARTK(Me3)QTARK(Ac)pSTGGK(Ac)APRK(Ac)QL-K(Biot)-NH2 [H3.1K4me3K9acS10pK14acK18ac] |  | 0.01388 | 0.1468 | 0.01919 | 0.02489 | 0.002027
ARTK(Me)QTARK(Ac)STGGK(Ac)APRK(Ac)QL-K(Biot)-NH2 [H3.1K4me1K9acK14acK18ac] | 0.9702 | 0.005174 | 0.194 |  | 0.8066 | 
ARTK(Me)QTARK(Ac)STGGKAPRK(Ac)QL-K(Biot)-NH2 [H3.1K4me1K9acK18ac] | 0.7729 | 0.0008903 | 0.06582 |  | 0.6625 | 
ARTK(Me)QTARKSTGGKAPRK(Ac)QL-Peg-Biot [H3.1K4me1K18ac] | 0.7343 |  |  | 0.002272 | 0.5708 | 1.355e-5

Substance | Avg Signal [1] | Avg Signal [2] | Avg Signal (53BP1 TTD) | Avg Signal [3] | Avg Signal [4] | Avg Signal (CST 9733 (anti-H3K27me3))
ARTK(Me)QTARKSTGGKAPRKQL-K(Biot)-NH2 [Peptide H3.1K4me1] | 0.89 |  | 0.08871 |  | 0.7621 | 
ARTK(N3)QTARKSTGGKAPRKQL-K(Biot)-NH2 [Peptide H3.1K4N3] | 0.03034 |  | 0.07618 |  | 0.03523 | 
ARTKQTARK(Ac)STGGK(Ac)APRK(Ac)QL-K(Biot)-NH2 [H3.1K9acK14acK18ac] | 0.2691 | 0.001438 | 0.1031 |  | 0.01044 | 
Ac-APRKQLAT-NleAARKSAPS-Peg-Biot [Peptide H3.3K23-Nle] |  | 0.003975 |  | 0.001042 | 0.0003163 | 0.0003783
Ac-APRKQLATKAARK(Me2)pSAPSTGG-Peg-Biot [H3.3K27me2S28p] |  | 0.009021 |  | 0.003767 | 0.002617 | 0.004223
Ac-GKGGAKRHRK(Me2)VLRDNIQ-Peg-Biot [Peptide H4K20me2] | 0.06608 | 0.01321 | 1 |  | 0.04168 | 0.000354
Ac-IAQDFK(Me2)TDLRF-Peg-K(Biot)-NH2 [Peptide H3.1K79me2] |  |  | 0.2119 | 0.002961 | 0.0001532 | 
Ac-IAQDFK(Me3)TDLRF-Peg-K(Biot)-NH2 [Peptide H3.1K79me3] | 0.06064 |  | 0.03452 |  | 0.03778 | 
Ac-SGRGK(Ac)GGK(Me)GLGK(Ac)GGAK(Ac)RHRKVLR-Peg-Biot [H4K5acK8me1K12acK16ac] | 0.006645 | 0.001214 |  |  | 0.003516 | 7.434e-5
Ac-SGRGK(Ac)GGKGLGK(Ac)GGAKRHRKVLR-Peg-Biot [Peptide H4K5acK12ac] | 0.0343 | 0.02456 | 0.08013 | 0.01271 | 0.01286 | 
Ac-SGRGK(Ac)QGGK(Ac)ARAK(Ac)AK(Ac)TR-Peg-Biot [H2AK5acK9acK13acK15ac] |  | 0.005245 | 0.0113 | 0.001671 | 0.0056 | 
Ac-SGRGK(Ac)QGGKARAKAKTR-Peg-Biot [Peptide H2AK5ac] | 0.04469 |  | 0.06555 |  | 0.0257 | 
Ac-SGRGK(Me)GGKGLGKGGAKRHRKVLR-Peg-Biot [Peptide H4K5me1] | 0.01832 | 0.04055 |  | 0.002242 | 0.006523 | 
Ac-SGRGKGGKGLGK(Me)GGAKRHRKVLR-Peg-Biot [Peptide H4K12me1] | 0.009402 | 0.001118 |  | 0.0009635 | 0.01394 | 0.0001351
Ac-SGRGKGGKGLGKGGAK(Ac)RHRKVLR-Peg-Biot [Peptide H4K16ac] | 0.0007834 |  | 0.07097 | 0.001899 | 0.00197 | 
Ac-SGRGQGGQGLGK(Ac)GGAQRHRQVLR-Peg-Biot [H4K12acK5QK8QK16QK20Q] | 0.02356 | 0.02202 |  | 0.0006189 | 0.0006964 | 0.0003661
Ac-pSGR(Me2a)GK(Ac)QGGKARAKAKTR-Peg-Biot [H2AS1pR3me2aK5ac] | 0.08644 | 0.0003455 | 0.1102 |  | 0.05587 | 0.0004026
KSAPSpTGGVK(Me)KPHRYRPGT-G-K(Biot)-NH2 [H3.3K36meT32p] | 0.005437 | 0.00231 |  | 0.0077 | 0.00279 | 0.002226
